Assay results reported in patent US20060034911A1, “New oral immediated release dosage form” (priority 2002, published 2006).

Assays:
[1] = Plasma elimination half-life in man; format: in vivo; details: human, read-out: plasma elimination half-life, t1/2 (converted)

Q: For Br.Cc1ccc(N2CCN(C)CC2)c2c1CC[C@@H](NC(=O)c1ccc(N3CCOCC3)cc1)C2 [(R)-N-[5-methyl-8-(4-methylpiperazin-1-yl)-1,2,3,4-tetrahydro-2-naphthyl]-4-morpholinobenzamide monohydrobromide], which half-life [1] is on record?
A: 35 h

Q: And the solubility (physchem; 0.1 M HCl, simulated gastric fluid)?
A: 11 mg/mL

Q: And the solubility (physchem; ethanol/water 1:1, aqueous with cosolvent or surfactant or cyclodextrin)?
A: 19 mg/mL

Q: What about the solubility (physchem; water) of the same molecule?
A: 6.4 mg/mL
